This is an account of results in US20100029568A1, “TIGHTER-BINDING C-PEPTIDE INHIBITORS OF HIV-1 ENTRY” (priority 2007, published 2010).

Read-outs that look alike come from different tables or passages of the source. Ends that are not written are not given here.

Test [1] concerns HIV-1 pseudotyped with wild type Env from strain HXB2 (HOS-CD4 target cells). The class given is cell-based. The procedure:
(§1) All viral infectivity and cell-cell fusion experiments were performed as described in Chan, D., et. al., 1998, Proc. Natl. Acad. Sci. U.S.A. 95, 15613-15617. Briefly, the potency of C-peptides in inhibiting viral infection was determined using recombinant luciferase-expressing HIV-1 as described by Malashkevich, V. N., et. al., 1998, Proc. Natl. Acad. Sci. USA 95, 9134-9139. To produce virus, 293T cells were co-transfected with the envelope-deficient HIV-1 genome NL43LucR-E-(21) and the HXB2 gp160 expression vector pCMVHXB2 gp160 using calcium phosphate. Viral supernatants were cleared of cellular debris by low-speed centrifugation and used to infect HOS-CD4/Fusin cells (N. Landau, National Institutes of Health AIDS Reagent Program) in the presence of varying concentrations of C-peptide, ranging from 0 to 200 nM. Cells were harvested 48 hr postinfection, and luciferase activity was measured in a Wallac (Gaithersburg, Md.) AutoLumat LB953 luminometer. The IC50 is the peptide concentration that results in a 50% decrease in activity relative to control samples lacking peptide. For each peptide, data from three experiments were fit to a Langmuir equation [y=k/(1+([peptide]/IC50)], where y=luciferase activity and k is a scaling constant] to obtain the IC50 values.
(§2) HOS-CD4-Les cells were infected with HIV-1 pseudotyped with Env from HXB2 HIV-1 strain of either the wild type sequence or one of three variant sequences that confer resistance to C-peptides. The sequences of Res1 and Res2 Env, defined in FIG. 1, contain mutations in the gp41 HR1 region that decrease C-peptide binding affinity. The sequence of Res3 contains a mutation in the gp41 HR2 region (N637K) that confers partial resistance by enhancing the rate of viral membrane fusion. The IC50 (±SEM) values represent the mean of 2 or 3 independent titrations of the indicated C-peptide.
(§3) The C37 variants generated were able to overcome resistance conferred by the HR1 region mutations. In FIG. 2, viruses pseudotyped with either wild type Env (closed squares) or V549E mutant Env (Res1, closed circles) from strain HXB2 were utilized to infect HOS-CD4-Les target cells. Infection took place in the presence and absence of C37 (FIG. 2A), C37-KYI (FIG. 2B) or (C37-GC)2 (FIG. 2C) and quantified by the expression of a luciferase-reporter construct. The IC50 values are indicated on the graph. A mutant variant of C37 with two substitutions (N637K and T6391), hereafter denoted C37-KYI, binds to a structural mimic of the gp41 HR1 region, the N-peptide known as N36 with an estimated equilibrium dissociation constant (Kd) of 40 fM, more than 20-fold lower than the Kd for wild type C37 (FIG. 2). The Hr1 and HR2 regions of three gp41 form an intermediate structure called the trimer-of-hairpins which is necessary for the viral entry process and membrane fusion with the host membrane.

The test system of test [2] is HIV-1 pseudotyped with V549E mutant Env (Res1, V38E) from strain HXB2. The class given is cell-based. The procedure: as §1, §2, §3
In another test the test system is HIV-1 Res 4 (SDTV). It counts as cell-based. Particulars: Table 2.
Test [3] has as its system HIV-1 with resistance mutations at the gp41 HR1 region. As to the kind of experiment: Viral infectivity, C-peptide-resistant HIV-1 (HR1 region resistance mutations, text statements). It counts as cell-based. The procedure:
as §1, with “values. […]” for “values.”

The test system of a further test is HIV-1 Res 2 (L33S). It counts as cell-based. As to conditions: Table 2. The procedure:
as §1, §2

The subject of test [4] is HIV-1 pseudotyped with Res 3 Env (HR2 mutant, N637K), HXB2. The class given is cell-based. The procedure: as §1, §2
Test [5] concerns HIV-1 with resistance mutations at the gp41 HR1 region. Particulars: read-out: IC50 after emergence of resistance mutations; cited from earlier work.
In a further test the test system is HIV entry. Particulars: read-out: IC50 against HIV entry; cited from earlier work.
Where [6] appears, read: Table 2, read-out: IC50, WT HXB2.
[7] abbreviates: Table 1, HXB2 wild type Env, HOS-CD4-Les cells, mean of 2 or 3 titrations, read-out: IC50 (±SEM), WT Env.

Take `CC[C@H](C)[C@H](NC(=O)[C@H](CC(C)C)NC(=O)[C@H](CO)NC(=O)[C@H](Cc1c[nH]cn1)NC(=O)[C@@H](NC(=O)[C@H](CC(C)C)NC(=O)[C@H](CO)NC(=O)[C@@H](NC(=O)[C@H](Cc1ccc(O)cc1)NC(=O)[C@H](CC(N)=O)NC(=O)[C@H](CC(N)=O)NC(=O)[C@@H](NC(=O)[C@H](CCC(=O)O)NC(=O)[C@H](CCCNC(=N)N)NC(=O)[C@H](CC(=O)O)NC(=O)[C@H](Cc1c[nH]c2ccccc12)NC(=O)[C@H](CCC(=O)O)NC(=O)[C@H](CCSC)NC(=O)[C@H](Cc1c[nH]c2ccccc12)NC(=O)[C@@H](NC(=O)[C@@H](NC(=O)[C@H](Cc1c[nH]cn1)NC(=O)CNC(=O)CN)[C@@H](C)O)[C@@H](C)O)[C@@H](C)CC)[C@@H](C)O)[C@@H](C)CC)C(=O)N[C@@H](CCC(=O)O)C(=O)N[C@@H](CCC(=O)O)C(=O)N[C@@H](CO)C(=O)N[C@@H](CCC(N)=O)C(=O)N[C@@H](CC(N)=O)C(=O)N[C@@H](CCC(N)=O)C(=O)N[C@@H](CCC(N)=O)C(=O)N[C@@H](CCC(=O)O)C(=O)N[C@@H](CCCCN)C(=O)N[C@@H](CC(N)=O)C(=O)N[C@@H](CCC(=O)O)C(=O)N[C@@H](CCC(N)=O)C(=O)N[C@@H](CCC(=O)O)C(=O)N[C@@H](CC(C)C)C(=O)N[C@@H](CC(C)C)C(=O)NCC(=O)NCC(=O)N[C@@H](Cc1c[nH]cn1)C(=O)N[C@@H](Cc1c[nH]cn1)C(=O)N[C@@H](Cc1c[nH]cn1)C(=O)N[C@@H](Cc1c[nH]cn1)C(=O)N[C@@H](Cc1c[nH]cn1)C(=O)N[C@@H](Cc1c[nH]cn1)C(=O)O` [C37]: the IC50 was 1.3 ± 0.2 nM in test [1] (setting [6]); roughly 1 nM in test [1] (read-out: IC50 against viruses pseudotyped with EnvHXB2); 126 ± 24 nM in test [2] (Table 2, read-out: IC50, Res 1 (V38E)); 53 ± 15 nM with HIV-1 Res 4 (SDTV); 1.3 ± 0.4 nM with HIV-1 Res 2 (L33S); 7.1 ± 3.6 nM in test [4] (Table 2, read-out: IC50, Res 3 (N123K/L204I)). Also, the “fold reduction in inhibitory potency by HR1 region resistance mutations” value in test [3] is reported as 100 fold.
As for “(C37-GC)2: Disulfide-crosslinked dimeric C37 variant containing a Cys residue at the peptide's C-terminus (added Gly-Cys) (HTTWMEWDREINNYTSLIHSLIEESQNQQEKNEQELLGC; also: disulfide-crosslinked homodimer via C-terminal Cys)”, the IC50 in test [1] (setting [7]) is 0.3 nM; in test [2] (Table 1, HOS-CD4-Les cells, read-out: IC50 (±SEM), Res 1 Env (HR1 mutant)) it was 0.3 nM. The “inhibition of wild type virus compared to monomeric C37” value in test [1] (in words) is listed as “not significantly better”.
For enfuvirtide, the IC50 was greater than 900 nM in test [5]; 1.7 ± 0.4 nM in test [1] (setting [7]); 2.3 ± 1 nM in test [1] (setting [6]); 900 ± 150 nM in the test with HIV-1 Res 4 (SDTV); roughly 1 nM in the test with HIV entry; 6.4 ± 1.5 nM in test [4] (Table 1, HOS-CD4-Les cells, read-out: IC50 (±SEM), Res 3 Env (HR2 mutant)).
